Article PMC6713262 (Cell, 2019)
Where two headings read alike, the source gives them in different places.

Molecular target: crystallized CB2 construct (CB2-T4L) (Homo sapiens, UniProt P34972, D228Y/G225M/G233N/G304E/G78L/H226L/INS221[…]/INS227[…]/INS235[…]/M234R/R229N/R242E/S224R/T127A/T153L/V231T)
Assay: Radioligand competition binding with [3H]-CP55,940, crystallized CB2 construct

Compound	Effect of construct modifications on binding affinity of CB2	Effect of construct modifications on binding affinity of CB2 (T4L fusion, five mutations, N/C-terminal truncation, Figure S1F)
SR144528 [reference compound]	little effect	–
Cc1c(C(=O)NC23CC4CC(CC(C4)C2)C3)nn(CCCCCO)c1-c1ccccc1 [AM10257, 1-(5-Hydroxypentyl)-4-methyl-5-phenyl-N-tricyclo[3.3.1.1^3,7]dec-1-yl-1H-pyrazole-3-carboxamide]	–	little effect
